Results published in US8697703B2, “Piperazine derivatives for blocking Cav2.2 calcium channels” (Convergence Pharmaceuticals Limited, priority 2010, dated 2014).
Values joined by “and” are separate entries in the source; they are usually repeats but may differ in a detail not shown here. Equal values may be shown once. Where a name gives a salt, the structure may show the parent alone.

Legend:
[1] = target: T1, hCav3.2 channels (T-type; CACNA1H) (Homo sapiens, UniProt O95180, V664A); test: Cav3.2 assay (T-type), IonWorks Quattro planar array electrophysiology in stable HEK293 cells; format: cell-based; conditions: for IC50: current elicited by the 1st depolarising pulse inhibited by 50%, read-out: pIC50 (tonic) (converted)
T1 construct: predicted protein is equivalent to the full-length human variant NP_066921; expressed in transfected cells; plasmid pCIN5-human-alpha1H
Description: The ability of the compounds of the invention to modulate the voltage-gated calcium channel subtype Cav3.2 (T-Type) may be determined by the following assay.
Stable cell lines expressing hCav3.2 channels were created by transfecting HEK293 cells with the plasmid pCIN5-human-alpha1H. pCIN5-human-alpha1H predicted protein is equivalent to the full-length human variant NP_066921 for the human ion channel CACNA1H (voltage dependent calcium channel T type alpha 1H subunit), the longer variant form. It contains minor alleles for two SNPs (Ala 664 and Arg 2077). However, in the absence of any knowledge about compound binding at this ion channel, these rare variants are not seen as issues. Stable cell line was selected by 500 ug/ml G418 (geneticin). The best cell line clone was selected by IonWorks. Cells were cultured in DMEM/F12 medium supplemented by 10% Foetal Bovine Serum (Gibco/Invitrogen #041-95750), 1% non-essential amino acids (PAA, M11-003) and 1% Penicillin-Streptomycin (Invitrogen, 15140-122). 500 ug/ml of G418 (PAA, P11-012) was added to maintain channel expression. Cells were grown and maintained at 37° C. in a humidified environment containing 5% CO2 in air. Cells were detached from the T175 culture flask for passage and harvesting using TrypLE (Gibco/Invitrogen cat #12604). For the experiment, cells were plated in a T175 culture flask 48 hours before running the assay to reach a 50-80% confluence the day of the experiment.
Cells were grown to 50-80% confluence in a T175 flask. Cells were removed from the incubator and the media was aspirated. Cells were washed with 5 ml of warmed (37° C.) TrypLE and then 3 ml of warmed (37° C.) TrypLE was added to the flask for 6 min. The flask was tapped to dislodge cells and 5 ml of warmed (37° C.) external buffer with barium and magnesium was added to prepare a cell suspension. Cell suspension was then placed into a 15 ml centrifuge tube and centrifuged for 2 min at 1000 rpm. After centrifugation, the supernatant was removed and the cell pellet was resuspended in 4-5 ml of pre-warmed (37° C.) external solution with barium and magnesium using a 5 ml pipette to break up the pellet.
Currents were recorded at room temperature using the IonWorks Quattro™ planar array electrophysiology technology (Molecular Devices Corp.) with PatchPlate™ PPC for Ionworks Quattro (Molecular Devices, 9000-0902). Stimulation protocols and data acquisition were carried out using a microcomputer (Dell Pentium 4). In order to determine planar electrode hole resistances (Rp), a 10 mV voltage step was applied across each well. These measurements were performed before cell addition. After cell addition a seal test was performed by applying a voltage step from −80 mV to −70 mV for 160 ms prior to antibiotic amphotericin-B solution (Sigma, […]) circulation to achieve intracellular access. Leak subtraction was conducted in all experiments by applying a 80 ms hyperpolarizing (10 mV) prepulse followed by a 80 ms at the holding potential before the test pulses, to measure leak current. Test pulses stepping from the holding potential of −120 mV to −40 mV were applied for 25 ms and repeated 10 times at a frequency of 3 Hz. In all experiments, the test pulse protocol was performed in the absence (pre-read) and presence (post-read) of a compound. Pre- and post-reads were separated by a compound addition followed by a 10 minute incubation.
The intracellular solution contained the following (in mM): K-gluconate 120, KCl 20, MgCl2 5, EGTA 5, HEPES 10, adjusted to pH 7.35.
Amphotericin-B solution was prepared as 50 mg/ml stock solution in DMSO and diluted to a final working concentration of 0.2 mg/ml in intracellular solution. The external solution contained the following (in mM): Na-gluconate 120, NaCl 20, HEPES 10, MgCl2 1, BaCl2 5, with a pH of 7.35.
Compounds were prepared in DMSO as 10 mM stock solutions and subsequent 1:3 serial dilutions were performed. […]

[2] = target: T2, hCav2.2 (N-type) calcium channel: human Cav2.2α (α1B) subunit with human β3 and α2δ1 auxiliary subunits (Homo sapiens, UniProt Q00975); test: hCav2.2 assay (N-type), IonWorks planar array electrophysiology in stable HEK293 cells; format: cell-based; conditions: hydrochloride
T2 construct: expressed in transfected cells; plasmids pCIN5-hCav2.2, pCIH-hCav β3, pCIP-α2δ1
Protocol: Compounds as defined in the first or second aspect may be tested for in vitro biological activity in the hCav2.2 assay (N-type) in accordance with the following studies:
Stable cell lines expressing the human Cav2.2α (α1B) subunit, along with the human β3 and α2δ1 auxiliary subunits were created following sequential transfection and selection of human embryonic kidney (HEK293) cells. HEK293 cells were cultured in Dulbecco's modified Eagles media/F12 media (Invitrogen, Cat #041-95750V) containing 10% fetal bovine serum, with added L-glutamine (2 mM; Invitrogen, Cat #25030-024) and non-essential amino acids (5%; Invitrogen, Cat #11140-035). […] These clonal cell lines were assessed for Cav2.2 α/β3-mediated current expression using the IonWorks planar array electrophysiology technology (described below). […]
Currents were recorded at room temperature (21-23° C.) using the IonWorks planar array electrophysiology technology (Molecular Devices Corp.). […] In all experiments, the test pulse protocol was performed in the absence (pre-read) and presence (post-read) of a compound. Pre- and post-reads were separated by a compound addition followed by a 3-3.5 min incubation. […]

T1 sequence (O95180 whole entry V664A): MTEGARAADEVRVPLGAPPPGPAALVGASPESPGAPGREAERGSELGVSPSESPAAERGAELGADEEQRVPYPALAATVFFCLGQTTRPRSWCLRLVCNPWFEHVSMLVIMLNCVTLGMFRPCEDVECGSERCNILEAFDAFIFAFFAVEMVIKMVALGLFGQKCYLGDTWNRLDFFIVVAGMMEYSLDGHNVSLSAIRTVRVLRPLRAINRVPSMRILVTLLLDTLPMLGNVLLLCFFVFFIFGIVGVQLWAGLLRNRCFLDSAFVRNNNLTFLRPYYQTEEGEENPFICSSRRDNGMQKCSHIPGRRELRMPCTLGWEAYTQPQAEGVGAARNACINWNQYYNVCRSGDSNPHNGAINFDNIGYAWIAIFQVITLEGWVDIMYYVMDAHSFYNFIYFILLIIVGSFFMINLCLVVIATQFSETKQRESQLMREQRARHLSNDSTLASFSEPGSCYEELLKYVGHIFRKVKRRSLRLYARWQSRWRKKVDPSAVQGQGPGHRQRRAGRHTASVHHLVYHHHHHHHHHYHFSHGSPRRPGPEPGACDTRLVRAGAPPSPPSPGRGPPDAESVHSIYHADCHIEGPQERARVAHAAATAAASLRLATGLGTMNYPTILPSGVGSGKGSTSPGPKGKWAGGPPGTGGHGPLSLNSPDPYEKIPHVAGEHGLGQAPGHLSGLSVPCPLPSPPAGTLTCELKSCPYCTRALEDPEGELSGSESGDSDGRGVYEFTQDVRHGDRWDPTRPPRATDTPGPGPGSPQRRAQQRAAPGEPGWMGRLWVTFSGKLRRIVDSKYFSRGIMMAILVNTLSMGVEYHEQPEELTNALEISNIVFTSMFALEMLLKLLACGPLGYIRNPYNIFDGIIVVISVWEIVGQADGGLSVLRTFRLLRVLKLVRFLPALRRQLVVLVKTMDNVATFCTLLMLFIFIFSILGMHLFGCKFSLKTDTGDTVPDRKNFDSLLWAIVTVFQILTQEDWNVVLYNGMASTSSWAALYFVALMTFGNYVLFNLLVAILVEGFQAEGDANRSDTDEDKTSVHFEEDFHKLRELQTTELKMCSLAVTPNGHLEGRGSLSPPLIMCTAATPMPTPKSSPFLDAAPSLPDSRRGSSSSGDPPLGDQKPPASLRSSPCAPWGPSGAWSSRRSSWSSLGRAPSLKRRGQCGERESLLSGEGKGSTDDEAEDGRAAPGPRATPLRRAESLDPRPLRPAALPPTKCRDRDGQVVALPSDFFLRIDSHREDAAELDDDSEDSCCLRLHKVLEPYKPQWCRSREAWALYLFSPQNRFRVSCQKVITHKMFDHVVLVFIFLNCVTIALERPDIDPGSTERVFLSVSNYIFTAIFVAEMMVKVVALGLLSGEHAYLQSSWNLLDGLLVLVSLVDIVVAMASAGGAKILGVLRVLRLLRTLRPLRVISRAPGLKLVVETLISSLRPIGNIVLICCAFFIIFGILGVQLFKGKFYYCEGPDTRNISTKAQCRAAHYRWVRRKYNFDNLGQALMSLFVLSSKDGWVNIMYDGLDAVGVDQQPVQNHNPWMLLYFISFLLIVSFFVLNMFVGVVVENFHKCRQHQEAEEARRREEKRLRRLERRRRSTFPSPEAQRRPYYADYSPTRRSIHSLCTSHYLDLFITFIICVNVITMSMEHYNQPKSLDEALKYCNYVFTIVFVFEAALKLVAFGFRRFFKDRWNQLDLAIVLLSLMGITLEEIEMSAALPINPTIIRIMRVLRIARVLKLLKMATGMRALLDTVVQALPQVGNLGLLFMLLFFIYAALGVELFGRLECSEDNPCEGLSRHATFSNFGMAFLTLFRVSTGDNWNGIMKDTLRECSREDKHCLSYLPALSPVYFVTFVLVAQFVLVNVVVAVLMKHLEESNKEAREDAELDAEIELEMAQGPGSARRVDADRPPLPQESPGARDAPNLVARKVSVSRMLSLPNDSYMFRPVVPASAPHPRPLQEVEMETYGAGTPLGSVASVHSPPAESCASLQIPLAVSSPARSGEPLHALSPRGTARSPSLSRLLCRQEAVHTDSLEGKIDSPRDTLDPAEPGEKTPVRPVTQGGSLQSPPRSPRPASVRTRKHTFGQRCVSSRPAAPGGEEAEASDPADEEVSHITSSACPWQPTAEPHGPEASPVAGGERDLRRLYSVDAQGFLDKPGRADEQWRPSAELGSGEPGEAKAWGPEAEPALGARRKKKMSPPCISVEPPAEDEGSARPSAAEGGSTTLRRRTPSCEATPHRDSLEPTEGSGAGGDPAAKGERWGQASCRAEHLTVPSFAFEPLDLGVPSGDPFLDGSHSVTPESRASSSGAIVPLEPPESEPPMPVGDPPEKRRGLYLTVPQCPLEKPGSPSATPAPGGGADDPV

SMILES | IC50 [1] | other results
Cc1cc(C#N)ccc1S(=O)(=O)N1CCN(C(=O)c2ccc3cccnc3c2C)[C@@H](C)C1 [Compound 15, 3-Methyl-4-({(3S)-3-methyl-4-[(8-methyl-7-quinolinyl)carbonyl]-1-piperazinyl}sulfonyl)benzonitrile] | ≤ 31.6 µM | –
O=C(c1cccc2cccnc12)N1CCN(S(=O)(=O)c2ccc(OC(F)(F)F)cc2)CC1 [Compound 30, 8-{[4-({4-[(Trifluoromethyl)oxy]phenyl}sulfonyl)-1-piperazinyl]carbonyl}quinoline] | ≤ 31.6 µM | –
Cc1cc(C#N)ccc1S(=O)(=O)N1CCN(C(=O)c2cccc3ccncc23)CC1 [Compound 26, 4-{[4-(8-Isoquinolinylcarbonyl)-1-piperazinyl]sulfonyl}-3-methylbenzonitrile hydrochloride] | ≤ 31.6 µM | –
Cc1c(C(=O)N2CCN(S(=O)(=O)c3ccc(OC(F)(F)F)cc3)CC2)ccc2cccnc12 [Compound 2, 8-Methyl-7-{[4-({4-[(trifluoromethyl)oxy]phenyl}sulfonyl)-1-piperazinyl]carbonyl}quinoline] | ≤ 31.6 µM | –
C[C@H]1CN(S(=O)(=O)c2ccc(C(F)(F)F)cc2)CCN1C(=O)c1ccc2cccnc2c1 [Compound 1, 7-[((2S)-2-Methyl-4-{[4-(trifluoromethyl)phenyl]sulfonyl}-1-piperazinyl)carbonyl]quinoline] | ≤ 31.6 µM | –
Cl.O=C(c1ccc2ccccc2n1)N1CCN(S(=O)(=O)c2ccc(C(F)(F)F)cc2)CC1 [Compound 3, 2-[(4-{[4-(Trifluoromethyl)phenyl]sulfonyl}-1-piperazinyl)carbonyl]quinoline hydrochloride] | 25.1 µM and ≤ 31.6 µM | pUD30 (use-dependent) ([2]; concentration producing 30% use-dependent inhibition, 10th versus 1st depolarising pulse, 10 Hz, -90 mV to +10 mV): 5.8; pIC50 (tonic) ([2]; current elicited by the 1st depolarising pulse inhibited by 50%): 4.6; pUD30 (use-dependent) ([1]; concentration producing 30% use-dependent inhibition, 10th versus 1st depolarising pulse, 3 Hz, -120 mV to -40 mV, hydrochloride): 5.4

More lines, main results first:

IC50 [1] | SMILES | other results
≤ 31.6 µM | Cc1cc(C#N)ccc1S(=O)(=O)N1CCN(C(=O)c2ccc3cccnc3c2)CC1 [Compound 7, 3-Methyl-4-{[4-(7-quinolinylcarbonyl)-1-piperazinyl]sulfonyl}benzonitrile hydrochloride] | –
≤ 31.6 µM | Cc1ccc2ccc(C(=O)N3CCN(S(=O)(=O)c4ccc(C#N)cc4C)C[C@@H]3C)cc2n1 [Compound 10, 3-Methyl-4-({(3S)-3-methyl-4-[(2-methyl-7-quinolinyl)carbonyl]-1-piperazinyl}sulfonyl)benzonitrile] | –
≤ 31.6 µM | Cc1ccc2ccc(C(=O)N3CCN(S(=O)(=O)c4ccc(C#N)cc4C)CC3)cc2n1 [Compound 9, 3-Methyl-4-({4-[(2-methyl-7-quinolinyl)carbonyl]-1-piperazinyl}sulfonyl)benzonitrile hydrochloride] | –
